{"source": "patent US20230292755A1", "about": "“USE OF A GLYCINE BETAINE DERIVATIVE AS A PEDICULICIDAL AGENT” (priority 2020, published 2023)", "system": "lice (Pediculus humanus capitis)", "test": "Efficacy test: aqueous solutions sprayed into boxes of lice, percentage of mortality evaluated (ECHA guidance)", "format": "in vivo", "conditions": "sprayed aqueous solution at 3% by weight of dry matter; for Mortality rate (%): mean of 4 boxes of 25 lice", "method": "The surfactant compositions prepared as described in examples 1 and 2 above were tested following the recommendations of the ECHA relating to the evaluation of the efficacy of biocidal products (Guidance on the Biocidal Products Regulation Volume II Efficacy—Assessment and Evaluation (Parts B+C), Version 3.0 April 2018).\nThese compositions were thus each sprayed, in the form of aqueous solutions at 3% by weight of dry matter, into 4 boxes each including 25 lice (Pediculus humanus capitis), then the percentage of mortality was evaluated after 5, 10 and 15 min. The mean of the results obtained in the 4 boxes was calculated.\nThe test presented in example 3 was reproduced using one and the same concentration of different cationic surfactants instead of the glycine betaine derivatives according to the invention."}
{"compound": "CCCCCCCCCCCCCCCC[N+](C)(C)C.[Cl-]", "note": "[Cetrimonium chloride]", "values": [{"measurement": "Mortality rate (%)", "setting": "after 5 min", "value": 79, "unit": "%"}, {"measurement": "Mortality rate (%)", "setting": "after 10 min", "value": 94, "unit": "%"}, {"measurement": "Mortality rate (%)", "setting": "after 15 min", "value": 100, "unit": "%"}]}
{"compound": "CCCCCCCCCCCC[N+](C)(C)C.[Cl-]", "note": "[Dodecyltrimethylammonium chloride]", "values": [{"measurement": "Mortality rate (%)", "setting": "after 5 min", "value": 49, "unit": "%"}, {"measurement": "Mortality rate (%)", "setting": "after 10 min", "value": 78, "unit": "%"}, {"measurement": "Mortality rate (%)", "setting": "after 15 min", "value": 91, "unit": "%"}, {"measurement": "time required to eliminate 100% of the lice", "value": 30, "unit": "min"}]}
{"compound": "Benzalkonium chloride", "values": [{"measurement": "Mortality rate (%)", "setting": "after 5 min", "value": 70, "unit": "%"}, {"measurement": "Mortality rate (%)", "setting": "after 10 min", "value": 80, "unit": "%"}, {"measurement": "Mortality rate (%)", "setting": "after 15 min", "value": 82, "unit": "%"}, {"measurement": "time required to eliminate 100% of the lice", "value": 60, "unit": "min"}]}
